# System: catfish diagnosed as having PGD (proliferative gill disease)
# Experiment: treatment of rearing pond containing catfish diseased with PGD
# Type: in vivo
# Method: In order to effect these concentrations in the tank or pond where the diseased fish are contained the concentrated solution of Chloramine-T is prepared for using the correct amount of Chloramine-T for the volume of water which is contained in the tank or pond where the diseased fish reside. This concentrated solution is then spread evenly over the surface of the pond or tank via the use of a chemical boat. In order to aid mixing aeration equipment is run one hour before the application and 35 hours after the application.
# 1. A pond of 17 acres, 4.5 feet deep holding approximately 2 million catfish contained approximately 76.5 acre feet of water. […] […] Upon examination the whole fish population was diagnosed as having PGD in various stages with some of the fish dying. 411.57 pounds of Chloramine-T was dissolved in 50 gallons of water contained in a tank on a chemical boat, as the boat moved over the pond the Chloramine-T was applied evenly over the surface of the pond.
# [1] = Example 1, catfish 2 to 4 inches, 2 ppm, after 72 hours
# [2] = Example 2, catfish 6 to 9 inches, 2 ppm, after 72 hours
# [3] = Example 3, catfish 1 to 1.25 pounds, 2 ppm, after 72 hours
# [4] = Example 4, catfish 8 to 11 inches, 2 ppm, after 72 hours
# [5] = Example 5, catfish 8 to 11 inches, 1.5 ppm, after 72 hours
structure (smiles),measurement,setting,value
"Cc1ccc(S(=O)(=O)NCl)cc1.[Na] [Chloramine-T, N-Sodium, N-chloro-para-toluenesulfonamide]",death rate of the fish,"Example 1, catfish 2 to 4 inches, approx. 2 million, 2 ppm in pond, 24 hours after application",substantially decreased
same,death rate of the fish,"Example 1, catfish 2 to 4 inches, 2 ppm, after 48 hours",further decreased
same,PGD status upon examination of the fish population,[1],in remission
same,death of fish,[1],essentially stopped
same,PGD status upon examination of the fish population,"Example 1, catfish 2 to 4 inches, 2 ppm, after 96 hours",free of PGD
same,death rate of the fish,"Example 2, catfish 6 to 9 inches, approx. 1 million, 2 ppm in pond, 24 hours after application",substantially decreased
same,death rate of the fish,"Example 2, catfish 6 to 9 inches, 2 ppm, after 48 hours",further decreased
same,PGD status upon examination of the fish population,[2],in remission
same,death of fish,[2],essentially stopped
same,PGD status upon examination of the fish population,"Example 2, catfish 6 to 9 inches, 2 ppm, after 96 hours",free of PGD
same,death rate of the fish,"Example 3, catfish 1 to 1.25 pounds, approx. 125,000, 2 ppm in pond, 24 hours after application",substantially decreased
same,death rate of the fish,"Example 3, catfish 1 to 1.25 pounds, 2 ppm, after 48 hours",further decreased
same,PGD status upon examination of the fish population,[3],in remission
same,death of fish,[3],essentially stopped
same,PGD status upon examination of the fish population,"Example 3, catfish 1 to 1.25 pounds, 2 ppm, after 96 hours",free of PGD
same,death rate of the fish,"Example 4, catfish 8 to 11 inches, approx. 700,000, 2 ppm in pond, 24 hours after application",substantially decreased
same,death rate of the fish,"Example 4, catfish 8 to 11 inches, 2 ppm, after 48 hours",further decreased
same,PGD status upon examination of the fish population,[4],in remission
same,death of fish,[4],essentially stopped
same,PGD status upon examination of the fish population,"Example 4, catfish 8 to 11 inches, 2 ppm, after 96 hours",free of PGD
same,death rate of the fish,"Example 5, catfish 8 to 11 inches, approx. 700,000, 1.5 ppm in pond, 24 hours after application",no decrease
same,death rate of the fish,"Example 5, catfish 8 to 11 inches, 1.5 ppm, after 48 hours",not decreased
same,PGD status upon examination of the fish population,[5],continued unabated
same,death of fish,[5],continued
same,PGD status upon examination of the fish population,"Example 5, catfish 8 to 11 inches, 1.5 ppm, after 96 hours",continued to die and be afflicted with PGD
same,survival of the diseased fish,"Example 6, catfish 8 to 11 inches, approx. 450,000, 387 pounds in 48 acre feet, printed 1.5 ppm, 24 hours after application",all of the fish were dead
same,control of PGD in diseased catfish (summary of Examples 1 through 6),concentrations of less than 2 ppm,ineffective
same,toxicity to diseased catfish (summary of Examples 1 through 6),concentrations of more than 3 ppm,kill the diseased catfish
same,control of PGD in diseased catfish (summary of Examples 1 through 6),use in accordance with the process of the invention (2 to 3 ppm),eliminates PGD

# From patent publication US6386145B1, “Process for curing diseases in cultured fish” (B. L. Mitchell, Inc., priority 2000, dated 2002)
